In patent US7884129B2, “Composition comprising the alcohol compound isolated from the extract of cucurbitaceae family plant having anti-adipogenic and anti-obesity activity” (Helixir Co., Ltd., priority 2003, dated 2011):

Tests used:
Preadipocytes (3T3-L1) = test: Inhibition of adipocyte differentiation and triglyceride level (Oil Red O staining); assay type: cell-based
Experimental: To determine the inhibiting activity of the compound prepared by Examples 1, i.e., dehydrodiconiferylalcohol (DHCA), on the adipocytes differentiation and triglyceride level, following experiment was performed.
Preadipocytes (3T3-L1) purchased from ATCC (American […], USA) were cultured in RPMI medium containing 10% FBS and MDI cocktail (isobutylmethylxanthine, dexamethasone, insulin) was added thereto for differentiating into mature adipocytes. After two days, the medium was replaced and treated with only insulin. Thereafter, the medium was replaced and equal concentration of insulin was treated again every other day. DHCA ranging from 10 to 1000 ug/ml of the concentrations was treated when the adipocyte differentiation was induced and equal concentration of the DHCA was treated at every replacement of the medium. Troglitazone (Sigma Co.) and 10 uM SB203580 (Sigma Co.) were treated as control groups and 0.01% ethanol was used as a vehicle control. After eight days lapsed, the accumulated fat within differentiated cell was stained with Oil Red 0 staining reagent and the absorbance was determined with optical density qualitatively at 490 nm. The inhibition percentage (%) was calculated by following Empirical Formula 1. The Inhibition Percentage (%)=[O.D. of test group]/[O.D. value of control group]×100 Empirical Formula 1

PPAR α = target: T1, PPAR α (Homo sapiens, UniProt Q07869); test: PPAR α activation, tkPPRE-luciferase reporter in transfected CV-1 cells; assay type: cell-based; details: 24 hours
T1 construct: expressed in transfected cells; host or cells: CV-1 cells
T1 sequence (Q07869 1-468): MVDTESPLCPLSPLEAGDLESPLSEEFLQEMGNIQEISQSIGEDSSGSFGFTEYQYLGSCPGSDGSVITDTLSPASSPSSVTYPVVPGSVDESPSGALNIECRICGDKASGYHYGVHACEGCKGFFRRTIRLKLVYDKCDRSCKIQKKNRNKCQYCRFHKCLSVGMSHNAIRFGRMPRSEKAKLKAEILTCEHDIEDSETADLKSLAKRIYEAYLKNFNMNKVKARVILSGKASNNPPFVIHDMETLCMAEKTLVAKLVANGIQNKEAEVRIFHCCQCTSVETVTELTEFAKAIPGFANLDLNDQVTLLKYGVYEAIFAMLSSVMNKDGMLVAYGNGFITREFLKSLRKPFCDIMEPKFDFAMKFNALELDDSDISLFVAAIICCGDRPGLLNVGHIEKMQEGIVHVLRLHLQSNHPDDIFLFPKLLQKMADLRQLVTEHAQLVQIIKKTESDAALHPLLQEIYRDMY
T1 sequence (P19793 1-462 partner): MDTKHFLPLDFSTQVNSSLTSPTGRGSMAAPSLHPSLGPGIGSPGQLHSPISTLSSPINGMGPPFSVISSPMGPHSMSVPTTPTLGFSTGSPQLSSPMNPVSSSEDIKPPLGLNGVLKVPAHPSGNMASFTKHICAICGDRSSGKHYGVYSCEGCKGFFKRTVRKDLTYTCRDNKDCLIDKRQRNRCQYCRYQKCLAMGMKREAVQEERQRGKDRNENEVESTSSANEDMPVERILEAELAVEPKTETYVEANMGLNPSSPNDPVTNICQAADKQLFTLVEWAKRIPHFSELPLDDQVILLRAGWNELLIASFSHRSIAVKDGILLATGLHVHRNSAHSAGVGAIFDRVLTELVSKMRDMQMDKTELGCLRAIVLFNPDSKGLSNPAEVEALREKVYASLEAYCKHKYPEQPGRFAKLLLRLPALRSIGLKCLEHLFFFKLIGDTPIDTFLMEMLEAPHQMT
Experimental: To determine the regulating activity of the compound prepared by Example 1 on the PPAR α activation, following experiment was performed.
CV-1 cells were transiently cotransfected with both tkPPRE-luciferase and pCMV-PPAR α, together with pCMV-RXR and pCMV-β-Gal as a transfection control. Cells were treated with DHCA or various fractions, i.e. hexane and ethylacetate fractions obtained from this Cucurbitaceae family plant extract at the concentration of 100 ug/ml. Cells were also treated with DMSO or fenofibrate (100 uM, Sigma Co.), which is a well known agonist of PPARα. After 24 hours, cell lysates were prepared for the luciferase assay, and the activities were normalized to β-Gal activities.

COc1cc(C2Oc3c(OC)cc(/C=C/CO)cc3C2CO)ccc1O (stereo not shown) [DHCA, dehydrodiconiferyl alcohol]
anti-adipogenic activity compared with SB203580 (Preadipocytes (3T3-L1); 3T3-L1, SB203580 10 uM as control): comparable to that of SB203580
level of produced triglycerides and adipocytes differentiation (Preadipocytes (3T3-L1); 3T3-L1 induced with MDI, 8 days, Oil Red O, O.D. 490 nm, DHCA 10 to 1000 ug/ml): significantly reduced in a dose dependent manner
increase of luciferase activity as compared with control (PPAR α; 100 ug/ml, normalized to β-Gal): 10 folds
magnitude of PPAR α activation compared with fenofibrate (PPAR α; DHCA 100 ug/ml vs fenofibrate 100 uM): higher than that of fenofibrate treated cells
